Assay results: article PMC12263422, “Cryo-EM structure of the human THIK-1 K2P K^+ channel reveals a lower Y gate regulated by lipids and anesthetics” (Nature Structural & Molecular Biology, 2025)
Values joined by “and” are separate entries in the source; they are usually repeats but may differ in a detail not shown here. Equal entries are not always repeated. Where two headings read alike, the source gives them in different places.

Tests used:
Assay type in all cases: cell-based
THIK-1 F142A = target: T1, THIK-1 F142A (Homo sapiens, UniProt Q9HB14, F142A); assay: Inside-out excised patch recordings, oocytes, THIK-1 F142A mutant; settings: read-out: TPenA IC50
T1 construct: expressed in transfected cells; host or cells: Xenopus oocytes (mRNA injection)
Excerpt: (§1) Supplement 41594_2025_1497_MOESM2_ESM.xlsx, sheet "ExtData_Fig_S2c" | column: Normalized currents

[1] = target: T2, human K2P12.1 THIK-2 (THIK-2*) (Homo sapiens, UniProt Q9HB15, R11A/R12A/R14A/R15A/R16A); assay: Inside-out excised patch recordings, oocytes, THIK-2* (ER-retention mutant); settings: for Normalized currents: THIK-2* (unstimulated)
T2 construct: expressed in transfected cells; host or cells: Xenopus oocytes (mRNA injection)
T2 sequence (Q9HB15 1-430 R11A/R12A/R14A/R15A/R16A): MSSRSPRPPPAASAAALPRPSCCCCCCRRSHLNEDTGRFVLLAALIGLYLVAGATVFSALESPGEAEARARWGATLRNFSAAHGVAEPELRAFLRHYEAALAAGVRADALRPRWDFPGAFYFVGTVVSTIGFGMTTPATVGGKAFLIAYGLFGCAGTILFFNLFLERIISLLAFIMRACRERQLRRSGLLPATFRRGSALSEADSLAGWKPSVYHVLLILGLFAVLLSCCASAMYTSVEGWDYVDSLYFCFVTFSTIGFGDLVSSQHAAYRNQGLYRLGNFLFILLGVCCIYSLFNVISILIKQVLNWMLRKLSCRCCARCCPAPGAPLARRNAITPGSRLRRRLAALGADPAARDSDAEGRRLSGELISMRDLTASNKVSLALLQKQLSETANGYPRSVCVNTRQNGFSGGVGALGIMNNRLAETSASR
Excerpt: Human K2P13.1 THIK-1 (GenBank accession number: NM_022054) and human K2P12.1 THIK-2 (NM_022055.1) were used in this study. For functional expression studies, the respective K^+ channel subtype coding sequences were subcloned into the oocyte expression vector pSGEM or the dual-purpose expression vector pFAW[41] and verified by sequencing. All mutant channels were obtained by site-directed mutagenesis and verified by sequencing. To increase surface expression and macroscopic currents, measurements of THIK-2 channels used a mutated ER retention motif, (R11A R12A R14A R15A R16A; THIK-2*)[20]. Vector DNA was linearized with NheI or MluI, and mRNA was synthesized in vitro using the SP6 or T7 AmpliCap Max High Yield Message Maker Kit (Cellscript, USA) or HiScribe T7 ARCA mRNA Kit (New England Biolabs).
Two-electrode voltage–clamp (TEVC) studies were performed in Xenopus oocytes. All animal use conformed to the Guide for the Care and Use of Laboratory Animals (NIH Publication 85–23), and all experiments using Xenopus toads were approved by the local ethics panels. Oocytes were stored at 17 °C in ND96 recording solution composed of (in mM): 96 NaCl, 2 KCl, 1.8 CaCl2, 1 MgCl2, 5 HEPES (pH 7.5 adjusted with NaOH and HCl), supplemented with Na-pyruvate (275 mg L^–1), theophylline (90 mg L^–1) and gentamicin (50 mg L^–1). Oocytes were injected with 1 ng mRNA for WT or mutant channels, and were incubated for 24–48 h at 17 °C. Two-electrode voltage clamp recordings were then performed as previously described[42],[43]. For macroscopic patch–clamp measurements, oocytes were obtained as described above incubated at 17 °C in a solution containing (mM): 54 NaCl, 30 KCl, 2.4 NaHCO3, 0.82 MgSO4 ×7 H2O, 0.41 CaCl2, 0.33 Ca(NO3)2 ×4 H2O and 7.5 TRIS (pH 7.4 adjusted with NaOH and HCl) for 1–4 days before use. Excised patch recordings in inside-out configuration conditions were performed at room temperature. Patch pipettes were made from thick-walled borosilicate glass GB 200TF-8P (Science Products), had resistances of 0.2–0.5 MΩ (tip diameter, 10–25 µm) and filled with a pipette solution (in mM): 120 KCl, 10 HEPES and 3.6 CaCl2 (pH 7.4 adjusted with KOH and HCl). Intracellular bath solutions and compounds were applied to the cytoplasmic side of excised patches for the various K^+ channels through a gravity flow multi-barrel pipette system. The intracellular solution had the following composition (in mM): 120 KCl, 10 HEPES, 2 EGTA and 1 pyrophosphate (pH adjusted with KOH and HCl). Currents were recorded with an EPC10 amplifier (HEKA Electronics) and sampled at 10 kHz or higher, with filtering set to 3 kHz (–3 dB) or higher, as appropriate for sampling rate. For measurements of GPCR activation, whole-cell currents were recorded for THIK-1 in transiently transfected HEK-293 cells. Cells were stimulated by a ramp protocol between −100 and +60 mV (holding potential, −80 mV). The pipette solution was composed of (in mM): 140 KCl, 2 MgCl2, 1 CaCl2, 2.5 EGTA and 10 HEPES (pH 7.3 adjusted with KOH and HCl). The extracellular bath solution had the following composition (in mM): 135 NaCl, 5 KCl, 2 MgCl2, 2 CaCl2, 10 glucose and 10 HEPES pH (pH 7.3 adjusted with NaOH and HCl). Oxotremorine M (Oxo-M) was added to extracellular bath solution to obtain the final concentration. Single-channel currents were recorded with an Axopatch 200B amplifier through a Digidata 1440A digitizer (Molecular Devices). Data were filtered at 2 kHz and recorded at a 200-kHz sampling rate with the program Clampex (Molecular Devices). Pipette solution and bath solution for cell-attached recordings contained (in mM): 140 KCl, 2 MgCl2, 1 CaCl2 and 10 HEPES (pH 7.4 adjusted with KOH and HCl). For inside-out recordings, the bath solution contained (in mM): 140 KCl, 2 MgCl2, 1 CaCl2 and 10 HEPES (pH 7.2 adjusted with KOH and HCl). All experiments were conducted at room temperature. […]

THIK-1 S136A = target: T3, THIK-1 S136A (Homo sapiens, UniProt Q9HB14, S136A); assay: Inside-out excised patch recordings, oocytes, THIK-1 S136A mutant; settings: read-out: TPenA IC50
T3 construct: expressed in transfected cells; host or cells: Xenopus oocytes (mRNA injection)
Excerpt: as §1

[2] = THIK-2* WT (unstimulated), mean
[3] = THIK-2* WT, individual recordings

T3 sequence (Q9HB14 whole entry S136A): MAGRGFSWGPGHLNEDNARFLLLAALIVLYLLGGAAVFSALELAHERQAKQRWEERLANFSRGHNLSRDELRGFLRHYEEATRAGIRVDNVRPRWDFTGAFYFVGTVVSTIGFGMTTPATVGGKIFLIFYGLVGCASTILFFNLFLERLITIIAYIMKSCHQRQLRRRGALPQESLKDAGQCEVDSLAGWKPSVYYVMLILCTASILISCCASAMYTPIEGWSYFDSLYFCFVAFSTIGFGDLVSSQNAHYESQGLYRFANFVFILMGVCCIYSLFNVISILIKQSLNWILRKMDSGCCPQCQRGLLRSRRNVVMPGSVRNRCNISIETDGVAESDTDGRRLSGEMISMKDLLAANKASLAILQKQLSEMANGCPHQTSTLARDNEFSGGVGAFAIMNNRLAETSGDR
T1 sequence (Q9HB14 whole entry F142A): as the sequence (Q9HB14 whole entry S136A) above, with A136S, F142A counted along it

Question: Which results are given for CCCCC[N+](CCCCC)(CCCCC)CCCCC [TPenA, tetrapentylammonium]?
Answer: IC50 (THIK-1 F142A; individual recordings): 239 µM and 187 µM and 498 µM and 367 µM; IC50 (THIK-1 F142A; mean): 323 µM; Normalized currents ([1]; 0.1 µM TPenA): 0.99; Normalized currents ([1]; 1 µM TPenA): 0.98; Normalized currents ([1]; 10 µM TPenA): 0.94; Normalized currents ([1]; 100 µM TPenA): 0.71; Normalized currents ([1]; 1000 µM TPenA): 0.41; Normalized currents ([1]; 5000 µM TPenA): 0.35; τ of 1 mM TPenA block [1, 2]: 3.83 s; τ of 1 mM TPenA release [1, 2]: 3.40 s; τ of 1 mM TPenA block [1, 3]: 5.710 s and 3.800 s and 2.660 s and 5.630 s and 4.260 s and 2.170 s and 2.560 s; τ of 1 mM TPenA release [1, 3]: 4.580 s and 3.250 s and 3.550 s and 3.310 s and 3.680 s and 2.030 s; IC50 (THIK-1 S136A; individual recordings): 102 µM and 173 µM and 396 µM and 375 µM and 349 µM and 120 µM and 192 µM; IC50 (THIK-1 S136A; mean): 244 µM
